This passage reports EC50 results from patent publication US20090221642A1, “MUSCARINIC RECEPTOR AGONISTS, COMPOSITIONS, METHODS OF TREATMENT THEREOF, AND PROCESSES FOR PREPARATION THEREOF-176” (AstraZeneca AB, priority 2008, published 2009).

pEC50: −log10 of the molar value.

In this assay the target is T1, hM1 (human Muscarinic receptor subtype 1) (Homo sapiens, UniProt P11229).
T1 construct: expressed in transfected cells; host or cells: CHO cells (Chinese hamster ovary cells, ATCC)
T1 sequence (P11229 1-460): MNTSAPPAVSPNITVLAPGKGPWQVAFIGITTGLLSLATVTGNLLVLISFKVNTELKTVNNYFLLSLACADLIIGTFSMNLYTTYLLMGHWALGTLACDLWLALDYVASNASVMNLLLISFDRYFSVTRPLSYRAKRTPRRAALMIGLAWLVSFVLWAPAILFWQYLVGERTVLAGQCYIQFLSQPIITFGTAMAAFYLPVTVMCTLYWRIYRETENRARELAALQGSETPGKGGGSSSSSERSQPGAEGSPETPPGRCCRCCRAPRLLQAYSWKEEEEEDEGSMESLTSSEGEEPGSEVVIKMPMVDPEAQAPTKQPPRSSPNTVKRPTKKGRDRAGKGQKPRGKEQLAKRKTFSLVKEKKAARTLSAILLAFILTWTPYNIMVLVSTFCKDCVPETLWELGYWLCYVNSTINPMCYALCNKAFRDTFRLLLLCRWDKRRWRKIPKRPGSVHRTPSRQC
Nature of the assay: Human M1 calcium mobilization FLIPR assay. Type of assay: cell-based. As to conditions: hM1 expressed in CHO cells, intracellular Ca2+ release, read-out: hM1 EC50. As to the method:
Human M1, rat M1, human M3 and human M5 Calcium Mobilization FLIPR™ Assay
The compound activity in the present invention (EC50 or IC50) is measured using a 384 plate-based imaging assay that monitors drug induced intracellular Ca^2+ release in whole cells. Activation of hM1 (human Muscarinic receptor subtype 1, gene bank access NM_000738), rM1 (rat Muscarinic receptor subtype 1, gene bank access NM_080773), hM3 (human Muscarinic receptor subtype 3, gene bank access NM_000740NM_000740) and hM5 (human Muscarinic receptor subtype 5, gene bank access NM_0121258), receptors expressed in CHO cells (Chinese hamster ovary cells, ATCC) is quantified in a Molecular Devices FLIPR II™ instrument as an increase in fluorescent signal. Inhibition of hM3 and hM5 by compounds is determined by the decrease in fluorescent signal in response to 2 nM acetylcholine activation.
Prior to experiment, the cell culture medium is removed from the plates by inversion. […] Plates are incubated at 37° C. for 60 minutes prior to start the experiment. The incubation is terminated by washing the cells four times in assay buffer, leaving a residual 25 μl buffer per well. Cell plates are then transferred to the FLIPR, ready for compound additions.
The day of experiment, acetylcholine and compounds are diluted in assay buffer in three-fold concentration range (10 points serial dilution) for addition by FLIPR instrument. For all calcium assays, a baseline reading is taken for 10 seconds followed by the addition of 12.5 μl of compounds, resulting in a total well volume of 37.5 μl. Data is collected every second for 60 pictures and then every 6 seconds for 20 pictures prior to the addition of agonist. For hM3 and hM5, before agonist addition, a second baseline reading is taken for 10 seconds followed by the addition of 12.5 μl of agonist or buffer, producing a final volume of 50 μl. After agonist stimulation, the FLIPR continues to collect data every second for 60 pictures and then every 6 seconds for 20 pictures. The fluorescence emission is read using filter 1 (emission 510-570 nm) by the FLIPR on board CCD camera.
Calcium mobilization output data are calculated as the maximal relative fluorescence unit (RFU) minus the minimal value for both compound and agonist reading frame (except for hM1 and rM1 using only the maximal RFU). Data are analyzed using sigmoidal fits of a non-linear curve-fitting program (XLfit version 4.2.2 Excel add-in version 4.2.2 build 18 math 1Q version 2.1.2 build 18). All pEC50 and plC50 values are reported as arithmetic means ±standard error of mean of ‘n’ independent experiments.
For `COC(=O)N1CCC(C)(N2CCC(n3c(=O)[nH]c4ccc(F)cc43)CC2)C1` (single isomer, unassigned) [Example 51, methyl 3-(4-(6-fluoro-2-oxo-2,3-dihydro-1H-benzo[d]imidazol-1-yl)piperidin-1-yl)-3-methylpyrrolidine-1-carboxylate], the pEC50 was 7.24.

`CC1(N2CCC(n3c(=O)[nH]c4ccc(F)cc43)CC2)CCN(C(=O)OCCF)C1` (single isomer, unassigned) [Example 54, 2-fluoroethyl 3-(4-(6-fluoro-2-oxo-2,3-dihydro-1H-benzo[d]imidazol-1-yl)piperidin-1-yl)-3-methylpyrrolidine-1-carboxylate]: the pEC50 is 7.03.

With `COC(=O)N1CCC(C)(N2CCC(n3c(=O)[nH]c4cc(F)c(F)cc43)CC2)C1` (single isomer, unassigned) [Example 59, methyl 3-(4-(5,6-difluoro-2-oxo-2,3-dihydro-1H-benzo[d]imidazol-1-yl)piperidin-1-yl)-3-methylpyrrolidine-1-carboxylate], the negative-log EC50 (pEC50) is 7.11.

In the case of `CC1(N2CCC(n3c(=O)[nH]c4cc(F)c(F)cc43)CC2)CCN(C(=O)OCCF)C1` (single isomer, unassigned) [Example 62, 2-fluoroethyl 3-(4-(5,6-difluoro-2-oxo-2,3-dihydro-1H-benzo[d]imidazol-1-yl)piperidin-1-yl)-3-methylpyrrolidine-1-carboxylate], the pEC50 is 7.10.

For the molecule `CCCOC(=O)N1CCC(C)(N2CCC(n3c(=O)[nH]c4ccc(F)cc43)CC2)C1` (single isomer, unassigned) [Example 63, propyl 3-(4-(6-fluoro-2-oxo-2,3-dihydro-1H-benzo[d]imidazol-1-yl)piperidin-1-yl)-3-methylpyrrolidine-1-carboxylate], the negative-log EC50 (pEC50) was 6.46.

On to `CCCOC(=O)N1CCC(C)(N2CCC(n3c(=O)[nH]c4ccc(F)cc43)CC2)C1` (single isomer, unassigned) [Example 64, propyl 3-(4-(6-fluoro-2-oxo-2,3-dihydro-1H-benzo[d]imidazol-1-yl)piperidin-1-yl)-3-methylpyrrolidine-1-carboxylate], for which the negative logarithm of the EC50 (pEC50) was 7.10.

As for `CC(C)OC(=O)N1CCC(C)(N2CCC(n3c(=O)[nH]c4ccc(F)cc43)CC2)C1` (single isomer, unassigned) [Example 65, isopropyl 3-(4-(6-fluoro-2-oxo-2,3-dihydro-1H-benzo[d]imidazol-1-yl)piperidin-1-yl)-3-methylpyrrolidine-1-carboxylate], the pEC50 is 6.98.

Consider `CC(C)OC(=O)N1CCC(C)(N2CCC(n3c(=O)[nH]c4ccc(F)cc43)CC2)C1` (single isomer, unassigned) [Example 66, isopropyl 3-(4-(6-fluoro-2-oxo-2,3-dihydro-1H-benzo[d]imidazol-1-yl)piperidin-1-yl)-3-methylpyrrolidine-1-carboxylate], for which the pEC50 is 7.30.

Turning to `COC(=O)N1CCC(C)(N2CCC(N3C(=O)Cc4ccc(F)cc43)CC2)C1` (single isomer, unassigned) [Example 77, methyl 3-(4-(6-fluoro-2-oxoindolin-1-yl)piperidin-1-yl)-3-methylpyrrolidine-1-carboxylate], the pEC50 was 7.02.

On to `CC(C)OC(=O)N1CCC(C)(N2CCC(n3c(=O)[nH]c4ccccc43)CC2)C1` (stereo not drawn) [Example 3, isopropyl 3-methyl-3-(4-(2-oxo-2,3-dihydro-1H-benzo[d]imidazol-1-yl)piperidin-1-yl)pyrrolidine-1-carboxylate], for which the pEC50 is 6.97.

For the molecule `CC(C)OC(=O)N1CCC(C)(N2CCC(n3c(=O)[nH]c4cc(F)ccc43)CC2)C1` (stereo not drawn) [Example 9, isopropyl 3-(4-(5-fluoro-2-oxo-2,3-dihydro-1H-benzo[d]imidazol-1-yl)piperidin-1-yl)-3-methylpyrrolidine-1-carboxylate], the pEC50 was 6.91.

Take `COC(=O)N1CCC(C)(N2CCC(N3C(=O)Cc4ccccc43)CC2)C1` (stereo not drawn) [Example 71, methyl 3-methyl-3-(4-(2-oxoindolin-1-yl)piperidin-1-yl)pyrrolidine-1-carboxylate]: the pEC50 is 6.91.

For `CCOC(=O)N1CCC(C)(N2CCC(N3C(=O)Cc4c3cc(F)cc4C(C)(C)C)CC2)C1` (stereo not drawn) [Example 85, ethyl 3-(4-(4-tert-butyl-6-fluoro-2-oxoindolin-1-yl)piperidin-1-yl)-3-methylpyrrolidine-1-carboxylate], the pEC50 is 5.83.

Turning to `COC(=O)N1CCC(C)(N2CCC(N3C(=O)Cc4c3cc(C)cc4C(C)(C)C)CC2)C1` (stereo not drawn) [Example 86, methyl 3-(4-(4-tert-butyl-6-methyl-2-oxoindolin-1-yl)piperidin-1-yl)-3-methylpyrrolidine-1-carboxylate], the pEC50 was 5.85.

`CCOC(=O)N1CCC(C)(N2CCC(N3C(=O)C4(CC4)c4ccc(F)cc43)CC2)C1` (stereo not drawn) [Example 87, ethyl 3-(4-(6′-fluoro-2′-oxospiro[cyclopropane-1,3′-indoline]-1′-yl)piperidin-1-yl)-3-methylpyrrolidine-1-carboxylate]: the pEC50 was 6.90.
